In the experiment the target is T1, BTK (Homo sapiens, UniProt Q06187).
T1 construct: endogenous in cells; host or cells: Mino cells
T1 sequence (Q06187 whole entry): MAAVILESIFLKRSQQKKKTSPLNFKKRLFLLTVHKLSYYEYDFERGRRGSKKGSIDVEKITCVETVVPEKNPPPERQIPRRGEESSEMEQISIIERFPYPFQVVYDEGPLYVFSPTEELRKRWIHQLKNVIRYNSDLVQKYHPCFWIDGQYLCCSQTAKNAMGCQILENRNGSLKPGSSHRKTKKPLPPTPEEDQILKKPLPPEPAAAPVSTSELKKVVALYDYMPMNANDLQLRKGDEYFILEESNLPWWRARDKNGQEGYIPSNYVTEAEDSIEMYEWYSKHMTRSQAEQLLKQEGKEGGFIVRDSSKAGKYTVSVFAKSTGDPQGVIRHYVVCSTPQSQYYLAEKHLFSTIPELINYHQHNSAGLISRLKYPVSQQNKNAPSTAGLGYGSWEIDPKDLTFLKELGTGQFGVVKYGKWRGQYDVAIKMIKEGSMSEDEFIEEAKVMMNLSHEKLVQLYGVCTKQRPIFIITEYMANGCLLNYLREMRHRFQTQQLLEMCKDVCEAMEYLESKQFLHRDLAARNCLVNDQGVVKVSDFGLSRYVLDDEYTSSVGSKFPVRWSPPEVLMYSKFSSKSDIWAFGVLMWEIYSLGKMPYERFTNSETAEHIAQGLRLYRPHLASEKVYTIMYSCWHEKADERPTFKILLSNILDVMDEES
The experiment in a line: BTK degradation activity test in Mino cells. The class given is cell-based. Conditions: 16 h incubation, Western blot or Elisa. Put shortly:
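DC50 derived by curve fitting of BTK degradation rates versus untreated control across compound concentrations. Mino cells were exposed for 16 h; BTK levels in lysates, normalised via BCA protein, measured by Western blot or ELISA.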
Compound `CN1CCN(C2CCCN(c3nnc(C(N)=O)c(Nc4ccc(C5CCN(CC6CCN(c7ccc8c(c7)CN(C7CCC(=O)NC7=O)C8=O)CC6)CC5)cc4)n3)C2)C1=O` (centres unmarked) [Compound 087, 5-((4-(1-((1-(2-(2,6-dioxopiperidin-3-yl)-1-oxoisooctyl-5-yl)piperidin-4-yl)methyl)piperidin-4-yl)phenyl)amino)-3-(3-(3-methyl-2-oxyimidazolin-1-yl)piperidin-1-yl)-1,2,4-triazin-6-carboxamide] came in with a DC50 below 1 nM.
To `CN1CCN(C2CCCN(c3nnc(C(N)=O)c(Nc4ccc(C5CCN(CC6CCN(c7ccc8c(c7)n(C)c(=O)n8C7CCC(=O)NC7=O)CC6)CC5)cc4)n3)C2)C1=O` (centres unmarked) [Compound 088, 5-((4-(1-((1-(1-(2,6-dioxopiperidin-3-yl)-3-methyl-2-oxo-2,3-dihydro-1H-benzo[d]imidazol-5-yl)piperidin-4-yl)methyl)piperidin-4-yl)phenyl)amino)-3-(3-(3-methyl-2-oxoimidazolin-1-yl)piperidin-1-yl)-1,2,4-triazin-6-carboxamide] belongs below 1 nM.
`NC(=O)c1nnc(N2CCCC(N3CCN(c4ccccc4)C3=O)C2)nc1Nc1ccc(C2CCN(CC3CCN(c4ccc5c(c4)C(=O)N(C4CCC(=O)NC4=O)C5=O)C3)CC2)cc1` (centres unmarked) [Compound 089, 5-((4-(1-((1-(2-(2,6-dioxopiperidin-3-yl)-1,3-dioxoisoindol-5-yl)pyrrolidin-3-yl)methyl)piperidin-4-yl)phenyl)amino)-3-(3-(2-oxo-3-phenylimidazolin-1-yl)piperidin-1-yl)-1,2,4-triazin-6-carboxamide]: the DC50 is below 1 nM.
In turn, `NC(=O)c1nnc(N2CCCC(N3CCN(c4ccccc4)C3=O)C2)nc1Nc1ccc(C2CCN(C3CN(c4ccc5c(c4)C(=O)N(C4CCC(=O)NC4=O)C5=O)C3)CC2)cc1` (centres unmarked) [Compound 090, 5-((4-(1-(1-(2-(2,6-dioxopiperidin-3-yl)-1,3-dioxoisoindol-5-yl)azetidin-3-yl)piperidin-4-yl)phenyl)amino)-3-(3-(2-oxo-3-phenylimidazolin-1-yl)piperidin-1-yl)-1,2,4-triazin-6-carboxamide] returned a DC50 below 1 nM.
Next, `CC1(c2ccc(Nc3nc(N4CCCC(N5CCN(c6ccccc6)C5=O)C4)nnc3C(N)=O)cc2)CCN(C2CCN(c3ccc4c(c3)C(=O)N(C3CCC(=O)NC3=O)C4=O)CC2)CC1` (centres unmarked) [Compound 091, 5-((4-(1′-(2-(2,6-dioxopiperidin-3-yl)-1,3-dioxoisoindol-5-yl)-4-methyl-[1,4′-bipiperidin]-4-yl)phenyl)amino)-3-(3-(2-oxo-3-phenylimidazolin-1-yl)piperidin-1-yl)-1,2,4-triazin-6-carboxamide]: above 1 nM; `CC1(c2ccc(Nc3nc(N4CCCC(N5CCN(c6ccccc6)C5=O)C4)nnc3C(N)=O)cc2)CCN(C2CN(c3ccc4c(c3)C(=O)N(C3CCC(=O)NC3=O)C4=O)C2)CC1` (centres unmarked) [Compound 092, 5-((4-(1-(1-(2-(2,6-dioxopiperidin-3-yl)-1,3-dioxoisoindol-5-yl)azetidine-3-yl)-4-methylpiperidin-4-yl)phenyl)amino)-3-(3-(2-oxo-3-phenylimidazolin-1-yl)piperidin-1-yl)-1,2,4-triazin-6-carboxamide]: above 1 nM; `NC(=O)c1nnc(N2CCCC(N3CCN(c4ccccc4)C3=O)C2)nc1Nc1ccc2c(c1)CCN(C1CN(c3ccc4c(c3)C(=O)N(C3CCC(=O)NC3=O)C4=O)C1)C2` (centres unmarked) [Compound 093]: above 1 nM.
As to `NC(=O)c1nnc(N2CCCC(N3CCN(c4ccccc4)C3=O)C2)nc1Nc1ccc2c(c1)CCN(CC1CCN(c3ccc4c(c3)C(=O)N(C3CCC(=O)NC3=O)C4=O)CC1)C2` (centres unmarked) [Compound 094, 5-((2-((1-(2-(2,6-dioxopiperidin-3-yl)-1,3-dioxoisoindol-5-yl)piperidin-4-yl)methyl)-1,2,3,4-tetrahydroisoquinolin-6-yl)amino)-3-(3-(2-oxo-3-phenylimidazolin-1-yl)piperidin-1-yl)-1,2,4-triazin-6-carboxamide], the DC50 is below 1 nM.
As for `NC(=O)c1nnc(N2CCCC(N3CCN(c4ccccc4)C3=O)C2)nc1Nc1ccc(N2CCN(CC3CCN(c4ccc5c(c4)C(=O)N(C4CCC(=O)NC4=O)C5=O)CC3)CC2)cc1` (centres unmarked) [Compound 095, 5-((4-(4-((1-(2-(2,6-dioxopiperidin-3-yl)-1,3-dioxoisoindol-5-yl)piperidin-4-yl)methyl)piperazin-1-yl)phenyl)amino)-3-(3-(2-oxo-3-phenylimidazolin-1-yl)piperidin-1-yl)-1,2,4-triazin-6-carboxamide], the DC50 is below 1 nM.
`NC(=O)c1nnc(N2CCCC(N3CCN(c4ccccc4)C3=O)C2)nc1Nc1ccc(C2CCN(C3CCN(c4ccc5c(c4)C(=O)N(C4CCC(=O)NC4=O)C5=O)CC3)CC2)cc1` (centres unmarked) [Compound 096, 5-((4-(1′-(2-(2,6-dioxopiperidin-3-yl)-1,3-dioxoisoindol-5-yl)-[1,4′-bipiperidin]-4-yl)phenyl)amino)-3-(3-(2-oxo-3-phenylimidazolin-1-yl)piperidin-1-yl)-1,2,4-triazin-6-carboxamide] had a DC50 below 1 nM.
Next, `NC(=O)c1nnc(N2CCCC(N3CCN(c4ccccc4)C3=O)C2)nc1Nc1ccc(N2CCC(N3CCN(CC#Cc4ccc5c(c4)CN(C4CCC(=O)NC4=O)C5=O)CC3)CC2)cc1` (centres unmarked) [Compound 097]: above 1 nM; `NC(=O)c1nnc(N2CCCC(N3CCN(c4ccccc4)C3=O)C2)nc1Nc1ccc(C2CCN(CC3CCN(c4cc5c(cc4F)C(=O)N(C4CCC(=O)NC4=O)C5=O)CC3)CC2)cc1` (centres unmarked) [Compound 098, 5-((4-(1-((1-(2-(2,6-dioxopiperidin-3-yl)-6-fluoro-1,3-dioxoisoindol-5-yl)piperidin-4-yl)methyl)piperidin-4-yl)phenyl)amino)-3-(3-(2-oxo-3-phenylimidazolin-1-yl)piperidin-1-yl)-1,2,4-triazin-6-carboxamide]: below 1 nM; `NC(=O)c1nnc(N2CCCC(N3CCN(c4ccccc4)C3=O)C2)nc1Nc1ccc(C2CCN(CC3CCN(c4ccc5c(c4)C(=O)N(C4CCC(=O)NC4=O)C5)CC3)CC2)cc1` (centres unmarked) [Compound 099, 5-((4-(1-((1-(2-(2,6-dioxopiperidin-3-yl)-3-oxoisoindol-5-yl)piperidin-4-yl)methyl)piperidin-4-yl)phenyl)amino)-3-(3-(2-oxo-3-phenylimidazolin-1-yl)piperidin-1-yl)-1,2,4-triazin-6-carboxamide]: below 1 nM.
Compound `NC(=O)c1nnc(N2CCCC(N3CCN(c4ccccc4)C3=O)C2)nc1Nc1ccc(C2CCN(CC3CCN(c4ccc5c(c4)CN(C4CCC(=O)NC4=O)C5=O)CC3)CC2)cc1` (centres unmarked) [Compound 100, 5-((4-(1-((1-(2-(2,6-dioxopiperidin-3-yl)-1-oxoisoindol-5-yl)piperidin-4-yl)methyl)piperidin-4-yl)phenyl)amino)-3-(3-(2-oxo-3-phenylimidazolin-1-yl)piperidin-1-yl)-1,2,4-triazin-6-carboxamide] returned a DC50 below 1 nM.
To `Cn1c(=O)n(C2CCC(=O)NC2=O)c2ccc(N3CCC(CN4CCC(c5ccc(Nc6nc(N7CCCC(N8CCN(c9ccccc9)C8=O)C7)nnc6C(N)=O)cc5)CC4)CC3)cc21` (centres unmarked) [Compound 101] belongs below 1 nM; to `CN1CCN(C2CC3CC2N(c2nnc(C(N)=O)c(Nc4ccc(C5CCN(CC6CCN(c7ccc8c(c7)C(=O)N(C7CCC(=O)NC7=O)C8=O)C6)CC5)cc4)n2)C3)C1=O` (centres unmarked) [Compound 102, 5-((4-(1-((1-(2-(2,6-dioxopiperidin-3-yl)-1,3-dioxoisoindol-5-yl)pyrrolidin-3-yl)methyl)piperidin-4-yl)phenyl)amino)-3-(6-(3-methyl-2-oxoimidazolin-1-yl)-2-azabicyclo[2.2.1]heptan-2-yl)-1,2,4-triazin-6-carboxamide], below 1 nM.
To `CN1CCN(C2CC3CC2N(c2nnc(C(N)=O)c(Nc4ccc(C5CCN(C6CN(c7ccc8c(c7)C(=O)N(C7CCC(=O)NC7=O)C8=O)C6)CC5)cc4)n2)C3)C1=O` (centres unmarked) [Compound 103, 5-((4-(1-(1-(2-(2,6-dioxopiperidin-3-yl)-1,3-dioxoisoindol-5-yl)azetidin-3-yl)piperidin-4-yl)phenyl)amino)-3-(6-(3-methyl-2-oxoimidazolin-1-yl)-2-azabicyclo[2.2.1]heptan-2-yl)-1,2,4-triazin-6-carboxamide] belongs below 1 nM; to `CN1CCN(C2CC3CC2N(c2nnc(C(N)=O)c(Nc4ccc(C5(C)CCN(C6CCN(c7ccc8c(c7)C(=O)N(C7CCC(=O)NC7=O)C8=O)CC6)CC5)cc4)n2)C3)C1=O` (centres unmarked) [Compound 104, 5-((4-(1′-(2-(2,6-dioxopiperidin-3-yl)-1,3-dioxoisoindol-5-yl)-4-methyl-[1,4′-bipiperidin]-4-yl)phenyl)amino)-3-(6-(3-methyl-2-oxoimidazolin-1-yl)-2-azabicyclo[2.2.1]heptan-2-yl)-1,2,4-triazin-6-carboxamide], below 1 nM; to `CN1CCN(C2CC3CC2N(c2nnc(C(N)=O)c(Nc4ccc(C5(C)CCN(C6CN(c7ccc8c(c7)C(=O)N(C7CCC(=O)NC7=O)C8=O)C6)CC5)cc4)n2)C3)C1=O` (centres unmarked) [Compound 105, 5-((4-(1-(1-(2-(2,6-dioxopiperidin-3-yl)-1,3-dioxoisoindol-5-yl)azetidin-3-yl)-4-methylpiperidin-4-yl)phenyl)amino)-3-(6-(3-methyl-2-oxoimidazolin-1-yl)-2-azabicyclo[2.2.1]heptan-2-yl)-1,2,4-triazin-6-carboxamide], below 1 nM.
Consider `CN1CCN(C2CC3CC2N(c2nnc(C(N)=O)c(Nc4ccc5c(c4)CCN(C4CN(c6ccc7c(c6)C(=O)N(C6CCC(=O)NC6=O)C7=O)C4)C5)n2)C3)C1=O` (centres unmarked) [Compound 106, 5-((2-(1-(2-(2,6-dioxopiperidin-3-yl)-1,3-dioxoisoindol-5-yl)azetidine-3-yl)-1,2,3,4-tetrahydroisoquinolin-6-yl)amino)-3-(6-(3-methyl-2-oxoimidazolin-1-yl)-2-azabicyclo[2.2.1]heptan-2-yl)-1,2,4-triazin-6-carboxamide], for which the DC50 was below 1 nM.
